Assay results as given in patent US10280156B2, “Heteroaromatic chalcone derivatives and their medical use” (Medizinische Universität Wien, priority 2014, dated 2019).

Key:
K562 = experiment: Viability test on K562 cells; format: cell-based, human; details: already at low concentrations, no further increase of toxicity at increasing concentrations
Description: (§1) JURKAT and CCRF-CEM (T-cell acute lymphoblastic leukemia), HL60 and K562 representing acute and chronic myeloid leukemia, respectively, the chronic lymphocytic leukemia cell line MEC-1, and the diffuse large B-cell lymphoma cell line U-2940 were cultured in Gibco RPMI 1640+GlutaMAX (Life Technologies, Carlsbad, Calif., USA) supplemented with 10% fetal bovine serum gold (FBS gold; PAA Laboratories, Pasching, Austria) and 1% PenStrep (100 U/ml penicillin and 100 μg/ml streptomycin; PAA Laboratories), and maintained at 37° C. in humidified atmosphere with 5% CO2. […]
(§2) All experiments with hematological cell lines were done using phenol red-free RPMI 1640+L-glutamine (PAA Laboratories) supplemented with 1% PenStrep and 10% FBS gold, except experiments with OCI-Ly7 which were carried out in Gibco IMEM+GlutaMAX and 25 mM HEPES containing 20% FBS gold and 1% PenStrep. Cells were incubated in triplicates with increasing concentrations of the compounds for 48 h, changes in viability were determined using the cell proliferation and cytotoxicity assays EZ4U (Biomedica Group, Austria) and CellTiter-Blue Cell Viability Assay (Promega, Madison, Wis., USA) following instructions of the manufacturers. IC50 values were calculated from two independent experiments using GraphPad Prism 5 software. […]

[1] = tested on: primary cells from CLL patients; experiment: Combination treatment of CLL primary cells with compound 15 and a further anticancer agent; format: cell-based, human
Description: Peripheral blood mononuclear cells (PBMCs) of CLL patients were incubated in increasing concentrations of one of the above-mentioned anticancer agents alone or increasing anticancer agent concentrations plus compound 15 in two different concentrations under standard conditions for 48 h before viability was determined (CellTiterBlue, Promega). Primary cells from 5 (ABT199) or 6 patients (CAL101, PCI32765) were included.

Jurkat = experiment: Viability test on Jurkat cells; format: cell-based, human
Description: as §1, §2

HL60 = experiment: Viability test on HL60 cells; format: cell-based, human
Description: as §1, §2

[2] = tested on: PBMC of healthy individuals; experiment: Viability of healthy donor cells in suspension culture; format: cell-based; details: Homo sapiens, 48 h, read-out: IC50 HD Suspension
From the text: Hematological cell lines were acquired from the Leibniz Institute DSMZ-German Collection of Microorganisms and Cell Cultures (www.dsmz.de). Sixteen patients diagnosed with chronic lymphocytic leukemia at the Division of Hematology and Hemostaseology at the Vienna General Hospital and four healthy donors were included in the study. All participants signed informed consent according to the Declaration of Helsinki (Ethics Committee Nr: EK 1722/2012). Peripheral blood mononuclear cells (PBMC) were isolated using standardized Ficoll-Hypaque gradient centrifugation (Seromed, Berlin, Germany) and stored in liquid nitrogen until use. […]
Primary cells were incubated at a density of 300,000 cells per well in 96-well plates in a total volume of 100 μl of Gibco RPMI 1640+L-glutamine (PAA Laboratories) supplemented with 20% FBS gold with increasing concentrations of compounds for 48 h. […] Viability was measured using CellTiter-Blue Cell Viability Assay (Promega, Madison, Wis., USA) following the instructions of the manufacturers. Experiments with primary cells were done in triplicates, IC50 values were calculated from the mean values of all samples used in the various experiments using GraphPad Prism 5 software. […]

MEC1 = experiment: Viability test (CellTiter-Blue/EZ4U) on MEC1 cells, 48 h; format: cell-based, human; details: Homo sapiens, MEC1, 48 h, 48 h incubation; nd = no significant cytotoxic activity up to 100 μM
Description: JURKAT and CCRF-CEM (T-cell acute lymphoblastic leukemia), HL60 and K562 representing acute and chronic myeloid leukemia, respectively, the chronic lymphocytic leukemia cell line MEC-1, and the diffuse large B-cell lymphoma cell line U-2940 were cultured in Gibco RPMI 1640+GlutaMAX (Life Technologies, Carlsbad, Calif., USA) supplemented with 10% fetal bovine serum gold (FBS gold; PAA Laboratories, Pasching, Austria) and 1% PenStrep (100 U/ml penicillin and 100 μg/ml streptomycin; PAA Laboratories), and maintained at 37° C. in humidified atmosphere with 5% CO2. The diffuse large B-cell lymphoma cell line OCI-LY7 was cultured in Gibco IMDM+GlutaMAX and 25 mM HEPES (Life Technologies) containing 20% FBS gold and 1% PenStrep.
All experiments with hematological cell lines were done using phenol red-free RPMI 1640+L-glutamine (PAA Laboratories) supplemented with 1% PenStrep and 10% FBS gold, except experiments with OCI-Ly7 which were carried out in Gibco IMEM+GlutaMAX and 25 mM HEPES containing 20% FBS gold and 1% PenStrep. Cells were incubated in triplicates with increasing concentrations of the compounds for 48 h, changes in viability were determined using the cell proliferation and cytotoxicity assays EZ4U (Biomedica Group, Austria) and CellTiter-Blue Cell Viability Assay (Promega, Madison, Wis., USA) following instructions of the manufacturers. IC50 values were calculated from two independent experiments using GraphPad Prism 5 software.
Initially, compounds were biologically tested in six concentration steps (0.1 μM; 1 μM; 5 μM; 10 μM; 50 μM; and 100 μM) using the CellTiter-Blue Cell Viability Assay (Promega, Madison, Wis., USA) and an incubation time of 48 hours. […] IC50 values were calculated from at least two independent experiments with 3 replicates each. In order to evaluate the biologic activity of the new compounds, cytotoxicity was compared to that of fludarabine, an already approved drug for the treatment of various B-cell malignancies. […] Differences in IC50 values for the different cell types can be explained by the biological and genetic particularities of each subtype of B-cell Non-Hodgkin lymphoma (Stacchini A et al. Leukemia Res 1999, 23, 127-136; Sambade C et al. Int J Cancer 2006, 118, 555-563; Chang H et al. Leukemia lymphoma 1995, 19, 165-171; Tweeddale M E et al. Blood 1987, 69, 1307-1314; Tweeddale M et al. Blood 1989, 74, 572-578).

CCOc1ccccc1C(=O)/C=C/c1cc2ccccc2[nH]1 [Compound 15, 1-(2-Ethoxyphenyl)-3-(1H-indole-2-yl)-2-propen-1-one]
viability reduced down to (K562): 60% | effect of adding compound 15 to ABT199 on cytotoxicity ([1]; combination with ABT199, N=5, 48 h): synergistic effect | effect of adding compound 15 to CAL101 on cytotoxicity ([1]; combination with CAL101 (idelalisib), N=6, 48 h): synergistic effect | effect of adding compound 15 to PCI32765 on cytotoxicity ([1]; combination with PCI32765 (ibrutinib), N=6, 48 h): synergistic effect | IC50 (Jurkat; Homo sapiens, T-cell acute leukemia, nd = no significant cytotoxic activity up to 100 μM): 40 nM | viability, % of control (Jurkat; at concentrations <1 μM): less than 30 % of control | viability, % of control (HL60; HL60, at concentrations <1 μM): less than 30 % of control | IC50 (HL60; Homo sapiens, HL-60, myeloid leukemia, nd = no significant cytotoxic activity up to 100 μM): 20 nM | melting point: 124 to 126 °C | IC50 [2]: 13600 nM | IC50 (MEC1): 22 nM
